pKd: −log10 of the molar value. Active and inactive are the calls of the source.
Experiments:
[1] = target: Myosin light chain kinase, smooth muscle (Homo sapiens, UniProt Q15746)
[2] = target: Casein kinase I isoform delta (Homo sapiens, UniProt P48730)
[3] = target: Calcium/calmodulin-dependent protein kinase type II subunit delta (Homo sapiens, UniProt Q13557)
[4] = target: Bone morphogenetic protein receptor type-1A (Homo sapiens, UniProt P36894)
[5] = target: T1, Serine/threonine-protein kinase LATS1 (Homo sapiens, UniProt O95835)
T1 sequence (O95835 whole entry): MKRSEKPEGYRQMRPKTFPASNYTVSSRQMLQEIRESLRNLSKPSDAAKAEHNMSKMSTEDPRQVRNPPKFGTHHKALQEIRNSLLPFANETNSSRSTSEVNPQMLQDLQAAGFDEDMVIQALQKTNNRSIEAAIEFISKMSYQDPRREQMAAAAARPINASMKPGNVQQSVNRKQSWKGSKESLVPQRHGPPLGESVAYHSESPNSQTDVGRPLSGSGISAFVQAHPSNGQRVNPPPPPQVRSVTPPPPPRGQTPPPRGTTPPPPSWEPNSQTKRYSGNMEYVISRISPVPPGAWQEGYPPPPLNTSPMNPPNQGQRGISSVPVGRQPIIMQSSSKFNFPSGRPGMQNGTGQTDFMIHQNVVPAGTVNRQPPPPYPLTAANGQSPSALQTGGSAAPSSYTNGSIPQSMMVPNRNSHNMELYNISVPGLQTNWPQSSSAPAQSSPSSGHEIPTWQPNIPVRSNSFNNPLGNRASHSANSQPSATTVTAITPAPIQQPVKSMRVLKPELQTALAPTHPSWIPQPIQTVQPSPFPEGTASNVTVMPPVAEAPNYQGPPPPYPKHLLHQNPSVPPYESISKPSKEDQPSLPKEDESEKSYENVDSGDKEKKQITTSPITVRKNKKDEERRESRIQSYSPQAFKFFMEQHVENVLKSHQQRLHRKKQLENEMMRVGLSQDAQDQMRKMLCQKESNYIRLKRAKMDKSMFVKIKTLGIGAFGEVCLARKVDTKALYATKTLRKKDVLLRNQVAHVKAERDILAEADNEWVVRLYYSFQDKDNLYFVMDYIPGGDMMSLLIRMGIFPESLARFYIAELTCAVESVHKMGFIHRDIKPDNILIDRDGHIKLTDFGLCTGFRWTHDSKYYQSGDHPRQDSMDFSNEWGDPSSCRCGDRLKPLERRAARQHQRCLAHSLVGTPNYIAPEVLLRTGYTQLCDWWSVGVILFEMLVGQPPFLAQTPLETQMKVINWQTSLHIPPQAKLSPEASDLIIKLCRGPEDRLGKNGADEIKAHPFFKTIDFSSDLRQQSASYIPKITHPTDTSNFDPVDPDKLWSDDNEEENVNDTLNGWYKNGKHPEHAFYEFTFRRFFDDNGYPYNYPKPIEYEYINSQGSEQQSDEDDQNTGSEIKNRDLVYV

[6] = target: T2, Peroxisomal acyl-coenzyme A oxidase 1 (Homo sapiens, UniProt Q15067)
T2 sequence (Q15067 whole entry): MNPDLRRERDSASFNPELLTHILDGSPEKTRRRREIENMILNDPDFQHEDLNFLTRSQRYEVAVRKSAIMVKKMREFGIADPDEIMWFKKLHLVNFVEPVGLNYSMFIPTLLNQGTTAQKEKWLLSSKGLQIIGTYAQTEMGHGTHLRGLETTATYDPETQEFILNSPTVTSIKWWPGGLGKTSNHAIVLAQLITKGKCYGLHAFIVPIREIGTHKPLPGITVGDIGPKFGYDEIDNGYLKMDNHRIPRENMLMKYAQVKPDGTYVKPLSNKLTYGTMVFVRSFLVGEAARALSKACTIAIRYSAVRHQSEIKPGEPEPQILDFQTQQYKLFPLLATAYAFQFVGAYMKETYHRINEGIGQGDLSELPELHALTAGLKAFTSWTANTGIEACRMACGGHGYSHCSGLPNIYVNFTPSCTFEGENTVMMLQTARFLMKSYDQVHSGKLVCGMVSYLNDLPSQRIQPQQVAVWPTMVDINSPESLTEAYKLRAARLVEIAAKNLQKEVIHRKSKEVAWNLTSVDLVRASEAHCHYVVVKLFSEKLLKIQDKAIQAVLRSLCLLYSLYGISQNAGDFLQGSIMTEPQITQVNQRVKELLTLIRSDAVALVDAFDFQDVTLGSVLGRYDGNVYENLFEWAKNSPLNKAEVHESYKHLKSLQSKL

[7] = target: Tyrosine-protein kinase ABL2 (Homo sapiens, UniProt P42684)
LIM domain kinase 2 = LIM domain kinase 2 (Homo sapiens, UniProt P53671)
[8] = target: RAC-alpha serine/threonine-protein kinase (Homo sapiens, UniProt P31749)
[9] = target: T3, Probable ATP-dependent RNA helicase DDX6 (Homo sapiens, UniProt P26196)
T3 sequence (P26196 whole entry): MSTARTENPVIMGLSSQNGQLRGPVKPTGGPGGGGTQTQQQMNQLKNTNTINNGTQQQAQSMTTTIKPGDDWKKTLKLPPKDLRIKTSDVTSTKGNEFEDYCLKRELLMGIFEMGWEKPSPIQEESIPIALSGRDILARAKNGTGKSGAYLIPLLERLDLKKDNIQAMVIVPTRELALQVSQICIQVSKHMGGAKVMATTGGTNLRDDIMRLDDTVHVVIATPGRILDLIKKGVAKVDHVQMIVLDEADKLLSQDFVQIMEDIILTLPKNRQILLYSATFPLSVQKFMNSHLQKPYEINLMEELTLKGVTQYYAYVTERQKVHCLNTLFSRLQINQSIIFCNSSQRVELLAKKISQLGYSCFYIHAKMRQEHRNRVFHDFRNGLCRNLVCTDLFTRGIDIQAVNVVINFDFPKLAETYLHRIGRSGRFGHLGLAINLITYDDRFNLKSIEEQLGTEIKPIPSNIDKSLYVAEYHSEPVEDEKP
Further: in the data inactive means no Kd found up to 30 µM.

Sequence of LIM domain kinase 2 (P53671 whole entry, the tested form may be a part): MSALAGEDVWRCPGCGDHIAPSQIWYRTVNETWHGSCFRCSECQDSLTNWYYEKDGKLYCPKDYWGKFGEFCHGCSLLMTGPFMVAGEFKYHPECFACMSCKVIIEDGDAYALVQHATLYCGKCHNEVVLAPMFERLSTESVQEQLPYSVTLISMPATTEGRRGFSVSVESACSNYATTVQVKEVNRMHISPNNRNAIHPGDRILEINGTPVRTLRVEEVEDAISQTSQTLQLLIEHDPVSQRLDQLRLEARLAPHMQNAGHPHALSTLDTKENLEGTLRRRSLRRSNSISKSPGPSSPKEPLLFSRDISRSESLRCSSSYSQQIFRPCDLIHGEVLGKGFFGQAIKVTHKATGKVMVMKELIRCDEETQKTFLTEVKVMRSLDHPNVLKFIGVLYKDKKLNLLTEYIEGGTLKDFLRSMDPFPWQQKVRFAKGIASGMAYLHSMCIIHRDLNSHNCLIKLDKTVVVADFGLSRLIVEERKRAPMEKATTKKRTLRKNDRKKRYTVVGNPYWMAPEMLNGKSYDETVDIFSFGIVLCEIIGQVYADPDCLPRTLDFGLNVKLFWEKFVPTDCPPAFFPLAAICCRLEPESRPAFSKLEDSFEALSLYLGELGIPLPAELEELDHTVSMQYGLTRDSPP
Sequence of Myosin light chain kinase, smooth muscle (Q15746 whole entry, canonical isoform): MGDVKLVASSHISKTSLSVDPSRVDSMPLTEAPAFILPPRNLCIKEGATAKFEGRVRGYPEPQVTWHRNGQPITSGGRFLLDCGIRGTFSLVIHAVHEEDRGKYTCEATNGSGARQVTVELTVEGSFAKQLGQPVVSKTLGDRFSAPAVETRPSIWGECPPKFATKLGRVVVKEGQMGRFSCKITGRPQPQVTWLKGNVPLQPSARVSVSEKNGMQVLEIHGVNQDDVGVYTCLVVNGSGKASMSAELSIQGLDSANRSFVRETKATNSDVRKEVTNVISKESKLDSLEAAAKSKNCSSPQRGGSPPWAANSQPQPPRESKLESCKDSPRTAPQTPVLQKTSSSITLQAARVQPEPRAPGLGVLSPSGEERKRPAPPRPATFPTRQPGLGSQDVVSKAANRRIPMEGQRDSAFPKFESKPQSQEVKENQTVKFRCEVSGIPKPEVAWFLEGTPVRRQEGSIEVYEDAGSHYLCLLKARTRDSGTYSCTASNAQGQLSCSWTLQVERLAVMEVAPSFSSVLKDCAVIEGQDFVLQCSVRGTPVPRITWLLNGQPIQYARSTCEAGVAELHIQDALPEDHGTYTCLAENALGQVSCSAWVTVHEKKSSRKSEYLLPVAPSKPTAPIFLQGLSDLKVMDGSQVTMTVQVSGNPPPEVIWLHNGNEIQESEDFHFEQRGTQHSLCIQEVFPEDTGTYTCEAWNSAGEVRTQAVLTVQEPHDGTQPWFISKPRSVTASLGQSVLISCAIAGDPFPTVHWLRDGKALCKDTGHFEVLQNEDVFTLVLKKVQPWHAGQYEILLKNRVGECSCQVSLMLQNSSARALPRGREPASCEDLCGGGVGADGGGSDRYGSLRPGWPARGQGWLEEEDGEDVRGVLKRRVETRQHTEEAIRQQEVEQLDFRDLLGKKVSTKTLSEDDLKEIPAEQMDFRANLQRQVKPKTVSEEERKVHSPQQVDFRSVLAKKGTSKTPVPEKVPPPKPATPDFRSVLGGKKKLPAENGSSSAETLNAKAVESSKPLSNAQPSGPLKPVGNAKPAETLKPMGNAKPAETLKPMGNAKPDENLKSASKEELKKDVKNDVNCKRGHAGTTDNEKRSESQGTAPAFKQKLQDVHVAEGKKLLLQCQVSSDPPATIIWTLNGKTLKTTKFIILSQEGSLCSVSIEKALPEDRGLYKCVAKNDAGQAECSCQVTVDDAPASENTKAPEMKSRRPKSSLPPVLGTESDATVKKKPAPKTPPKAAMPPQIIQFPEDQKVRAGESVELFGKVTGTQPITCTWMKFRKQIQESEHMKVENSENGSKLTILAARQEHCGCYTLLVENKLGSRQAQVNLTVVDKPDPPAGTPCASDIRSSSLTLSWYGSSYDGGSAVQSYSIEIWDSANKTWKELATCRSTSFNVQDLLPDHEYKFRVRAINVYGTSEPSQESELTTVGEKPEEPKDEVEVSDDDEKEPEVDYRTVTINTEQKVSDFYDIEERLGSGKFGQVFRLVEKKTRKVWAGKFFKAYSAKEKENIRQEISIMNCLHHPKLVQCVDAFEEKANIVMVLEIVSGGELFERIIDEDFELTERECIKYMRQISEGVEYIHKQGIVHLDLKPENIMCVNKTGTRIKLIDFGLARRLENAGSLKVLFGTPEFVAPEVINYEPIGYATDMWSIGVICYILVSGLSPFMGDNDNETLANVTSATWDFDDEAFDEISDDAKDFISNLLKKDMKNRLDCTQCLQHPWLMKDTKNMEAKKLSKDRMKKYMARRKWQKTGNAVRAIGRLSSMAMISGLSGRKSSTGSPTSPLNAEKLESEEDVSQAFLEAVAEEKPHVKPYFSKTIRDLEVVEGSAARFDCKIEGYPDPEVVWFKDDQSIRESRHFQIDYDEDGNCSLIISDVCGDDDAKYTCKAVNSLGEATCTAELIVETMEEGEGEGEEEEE
Sequence of Calcium/calmodulin-dependent protein kinase type II subunit delta (Q13557 whole entry): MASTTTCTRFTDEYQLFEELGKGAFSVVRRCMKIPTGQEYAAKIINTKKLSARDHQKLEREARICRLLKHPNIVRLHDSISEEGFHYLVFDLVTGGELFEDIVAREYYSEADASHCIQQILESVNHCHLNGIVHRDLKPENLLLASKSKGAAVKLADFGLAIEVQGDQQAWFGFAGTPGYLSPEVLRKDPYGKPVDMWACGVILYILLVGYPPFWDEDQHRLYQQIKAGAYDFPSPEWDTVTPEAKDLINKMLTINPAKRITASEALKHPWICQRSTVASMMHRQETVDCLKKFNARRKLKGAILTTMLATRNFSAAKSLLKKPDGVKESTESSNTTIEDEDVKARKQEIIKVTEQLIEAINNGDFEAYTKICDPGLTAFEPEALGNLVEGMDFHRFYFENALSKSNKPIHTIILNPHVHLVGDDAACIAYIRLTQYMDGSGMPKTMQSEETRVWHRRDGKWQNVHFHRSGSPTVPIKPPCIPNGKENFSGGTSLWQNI
Sequence of Bone morphogenetic protein receptor type-1A (P36894 whole entry): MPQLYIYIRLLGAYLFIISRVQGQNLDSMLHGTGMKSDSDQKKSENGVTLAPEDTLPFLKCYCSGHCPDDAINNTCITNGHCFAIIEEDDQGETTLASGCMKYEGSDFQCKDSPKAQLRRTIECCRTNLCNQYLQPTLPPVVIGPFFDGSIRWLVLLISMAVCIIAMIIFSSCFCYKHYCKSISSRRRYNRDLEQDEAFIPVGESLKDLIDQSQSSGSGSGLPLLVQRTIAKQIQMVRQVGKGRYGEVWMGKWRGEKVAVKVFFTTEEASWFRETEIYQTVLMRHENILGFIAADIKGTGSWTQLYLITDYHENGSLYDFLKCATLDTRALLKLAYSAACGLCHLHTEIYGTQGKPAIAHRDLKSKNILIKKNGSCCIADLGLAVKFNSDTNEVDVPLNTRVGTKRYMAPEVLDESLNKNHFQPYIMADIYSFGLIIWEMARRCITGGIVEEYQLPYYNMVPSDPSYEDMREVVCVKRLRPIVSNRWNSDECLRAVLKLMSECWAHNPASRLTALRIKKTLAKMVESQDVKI
Sequence of RAC-alpha serine/threonine-protein kinase (P31749 whole entry): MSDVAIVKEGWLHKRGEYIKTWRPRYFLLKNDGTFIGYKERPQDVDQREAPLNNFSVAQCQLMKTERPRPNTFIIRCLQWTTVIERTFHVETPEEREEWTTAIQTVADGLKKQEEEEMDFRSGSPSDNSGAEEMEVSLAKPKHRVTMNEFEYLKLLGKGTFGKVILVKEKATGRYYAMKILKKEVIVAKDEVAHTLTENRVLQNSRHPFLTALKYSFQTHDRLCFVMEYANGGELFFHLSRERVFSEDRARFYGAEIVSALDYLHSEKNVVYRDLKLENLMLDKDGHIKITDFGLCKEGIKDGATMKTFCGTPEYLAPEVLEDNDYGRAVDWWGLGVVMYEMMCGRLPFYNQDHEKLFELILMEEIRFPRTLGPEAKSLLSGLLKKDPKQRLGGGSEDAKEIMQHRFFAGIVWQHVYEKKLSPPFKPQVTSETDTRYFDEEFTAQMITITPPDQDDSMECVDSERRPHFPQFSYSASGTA
Sequence of Casein kinase I isoform delta (P48730 whole entry, canonical isoform): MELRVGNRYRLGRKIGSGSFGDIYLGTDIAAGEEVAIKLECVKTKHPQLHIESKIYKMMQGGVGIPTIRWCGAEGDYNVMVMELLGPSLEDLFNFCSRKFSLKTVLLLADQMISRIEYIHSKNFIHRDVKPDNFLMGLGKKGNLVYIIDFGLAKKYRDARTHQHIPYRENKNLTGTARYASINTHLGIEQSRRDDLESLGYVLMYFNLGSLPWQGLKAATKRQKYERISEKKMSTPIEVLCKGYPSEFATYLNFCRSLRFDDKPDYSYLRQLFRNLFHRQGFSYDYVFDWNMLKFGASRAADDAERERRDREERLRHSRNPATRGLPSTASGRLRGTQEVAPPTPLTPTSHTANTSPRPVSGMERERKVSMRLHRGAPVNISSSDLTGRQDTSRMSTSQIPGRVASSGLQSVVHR

| Kd [1] | Kd [2] | Kd [3] | Kd [4] | Kd [5] | Kd [6] | Kd [7] | Kd (LIM domain kinase 2) | Kd [8] | Kd [9] | Compound | pKd [1] |
| --- | --- | --- | --- | --- | --- | --- | --- | --- | --- | --- | --- |
| > 30 µM (inactive) | > 30 µM (inactive) | > 30 µM (inactive) | > 30 µM (inactive) | > 30 µM (inactive) | > 30 µM (inactive) | > 30 µM (inactive) | > 30 µM (inactive) |  |  | Cn1ncc(Cl)c1-c1cc(C(=O)N[C@H](CN)Cc2cccc(F)c2)sc1Cl [AFURESERTIB] |  |
| > 30 µM (inactive) | > 30 µM (inactive) | > 30 µM (inactive) | > 30 µM (inactive) | > 30 µM (inactive) | > 30 µM (inactive) | > 30 µM (inactive) | 0.096 µM (active) | > 30 µM (inactive) | > 30 µM (inactive) | COC(=O)N[C@@H](C)CNc1nccc(-c2cn(C(C)C)nc2-c2cc(Cl)cc(NS(C)(=O)=O)c2F)n1 [ENCORAFENIB] |  |
| > 30 µM (inactive) | > 30 µM (inactive) | > 30 µM (inactive) | > 30 µM (inactive) | > 30 µM (inactive) |  | 0.077 µM (active) | > 30 µM (inactive) | > 30 µM (inactive) | > 30 µM (inactive) | O=C(O)[C@]1(Cc2cccc(Nc3nccs3)n2)CC[C@@H](Oc2cccc(Cl)c2F)CC1 [MK-5108] |  |
| > 30 µM (inactive) | > 30 µM (inactive) | > 30 µM (inactive) | > 30 µM (inactive) | > 30 µM (inactive) | > 30 µM (inactive) | > 30 µM (inactive) | > 30 µM (inactive) | > 30 µM (inactive) |  | C[C@@H](Nc1cc(F)cc(F)c1)c1cc(C(=O)N(C)C)cc2c(=O)cc(N3CCOCC3)oc12 [AZD-8186] |  |
|  |  |  | > 30 µM (inactive) | 0.066 µM (active) | > 30 µM (inactive) | > 30 µM (inactive) | 2.55 µM (active) |  | > 30 µM (inactive) | Cc1nc(N)sc1-c1ccnc(Nc2ccc(N3CCOCC3)cc2)n1 [CYC-116] |  |
|  |  |  |  |  | > 30 µM (inactive) |  |  |  | > 30 µM (inactive) | CN1CCN(c2ccc3nc(-c4c(N)c5c(F)cccc5[nH]c4=O)[nH]c3c2)CC1 [DOVITINIB] |  |
| > 30 µM (inactive) |  | > 30 µM (inactive) |  | > 30 µM (inactive) | > 30 µM (inactive) | > 30 µM (inactive) | > 30 µM (inactive) | > 30 µM (inactive) | > 30 µM (inactive) | COc1cc2nccc(Oc3ccc(NC(=O)NC4CC4)c(Cl)c3)c2cc1C(N)=O [LENVATINIB] |  |
| > 30 µM (inactive) | > 30 µM (inactive) | > 30 µM (inactive) | > 30 µM (inactive) | > 30 µM (inactive) | > 30 µM (inactive) | > 30 µM (inactive) | > 30 µM (inactive) | > 30 µM (inactive) |  | CNC(=O)c1ccc(C)c(-n2c(C)cc(OCc3ccc(F)cc3F)c(Br)c2=O)c1 [PH-797804] |  |
| > 30 µM (inactive) |  |  | > 30 µM (inactive) | > 30 µM (inactive) | > 30 µM (inactive) |  |  |  | > 30 µM (inactive) | Cc1cc(Nc2cc(N3CCN(C)CC3)nc(/C=C/c3ccccc3)n2)n[nH]1 [ENMD-2076] |  |
|  | > 30 µM (inactive) |  |  |  | > 30 µM (inactive) |  |  |  | > 30 µM (inactive) | Nc1nc(N)c2nc(-c3cccc(O)c3)c(-c3cccc(O)c3)nc2n1 [TG100-115] |  |
|  | > 30 µM (inactive) | > 30 µM (inactive) | > 30 µM (inactive) | > 30 µM (inactive) | > 30 µM (inactive) |  | > 30 µM (inactive) | > 30 µM (inactive) | > 30 µM (inactive) | Cc1ccc(NC(=O)c2ccc(CN3CC[C@H](N(C)C)C3)c(C(F)(F)F)c2)cc1Nc1nccc(-c2cncnc2)n1 [BAFETINIB] | 5.92 |
|  |  |  |  |  | > 30 µM (inactive) |  |  |  | > 30 µM (inactive) | CCn1c(-c2nonc2N)nc2c(C#CC(C)(C)O)ncc(OC[C@H]3CCCNC3)c21 [GSK-690693] |  |
| > 30 µM (inactive) | > 30 µM (inactive) | > 30 µM (inactive) | > 30 µM (inactive) | > 30 µM (inactive) |  | > 30 µM (inactive) | > 30 µM (inactive) | > 30 µM (inactive) | > 30 µM (inactive) | COc1cc(OC)c(/C=C/S(=O)(=O)Cc2ccc(OC)c(NCC(=O)O)c2)c(OC)c1 [RIGOSERTIB] |  |
| > 30 µM (inactive) | > 30 µM (inactive) | > 30 µM (inactive) | > 30 µM (inactive) | > 30 µM (inactive) |  | > 30 µM (inactive) | > 30 µM (inactive) | > 30 µM (inactive) | > 30 µM (inactive) | Cc1c(F)cc(C(=O)NC2CC2)cc1-c1ccc(C(=O)NCC(C)(C)C)cn1 [LOSMAPIMOD] |  |
| > 30 µM (inactive) | > 30 µM (inactive) | > 30 µM (inactive) | > 30 µM (inactive) | > 30 µM (inactive) |  |  | > 30 µM (inactive) | > 30 µM (inactive) | > 30 µM (inactive) | COCCNCc1ccc(-c2cc3nccc(Oc4ccc(NC(=S)NC(=O)Cc5ccc(F)cc5)cc4F)c3s2)nc1 [GLESATINIB] |  |

| Compound | Kd [1] | Kd [2] | Kd [3] | Kd [4] | Kd [5] | Kd [6] | Kd [7] | Kd (LIM domain kinase 2) | Kd [8] | Kd [9] | pKd [1] |
| --- | --- | --- | --- | --- | --- | --- | --- | --- | --- | --- | --- |
| Cc1cn(-c2cc(NC(=O)c3ccc(C)c(Nc4nccc(-c5cccnc5)n4)c3)cc(C(F)(F)F)c2)cn1 [NILOTINIB] |  |  |  |  |  |  |  |  |  | > 30 µM (inactive) |  |
| O=C(Nc1cccc(Cl)c1)Nc1ncc(CCNc2ncnc3ccsc23)s1 [SNS-314] | > 30 µM (inactive) |  |  | > 30 µM (inactive) | > 30 µM (inactive) | > 30 µM (inactive) | > 30 µM (inactive) | > 30 µM (inactive) |  | > 30 µM (inactive) |  |
| COC(=O)[C@@]1(O)C[C@H]2O[C@]1(C)n1c3ccccc3c3c4c(c5c6ccccc6n2c5c31)C(=O)NC4 [K-252A] |  | > 30 µM (inactive) | 0.19 µM (active) | > 30 µM (inactive) | 0.067 µM (active) | > 30 µM (inactive) | > 30 µM (inactive) | > 30 µM (inactive) | > 30 µM (inactive) | > 30 µM (inactive) |  |
| Cc1ccc(-n2nc(C(C)(C)C)cc2NC(=O)NCc2cc(F)ccc2Oc2ccc3c(cnn3CCO)c2)cc1 [PEXMETINIB] |  | > 30 µM (inactive) | > 30 µM (inactive) | > 30 µM (inactive) | > 30 µM (inactive) |  | 0.351 µM (active) | > 30 µM (inactive) | > 30 µM (inactive) | > 30 µM (inactive) | 7.09 |

— ChEMBL document CHEMBL3991601, “The target landscape of clinical kinase drugs” (Science, 2017)
